According to ChEMBL document CHEMBL6078725, “Discovery of novel xanthohumol C derivatives regulating XRCC2 transcription and expression for the treatment of colorectal cancer” (Bioorg Med Chem, 2025):

Legend:
HCT-116 = assay: Antiproliferative activity against human HCT-116 cells incubated for 48 hrs by MTS assay; assay type: functional, cell-based; conditions: HCT-116, 48 h
RKO = assay: Antiproliferative activity against human RKO cells incubated for 48 hrs by MTS assay; assay type: functional, cell-based

IC50 (HCT-116) | Structure (SMILES) | IC50 (RKO)
> 22.4 µM | COc1cc2c(c(O)c1C(=O)/C=C/c1ccc3[nH]ccc3c1)C=CC(C)(C)O2 | 19.2 µM
39.4 µM | COc1cc(/C=C/C(=O)c2c(OC)cc3c(c2O)C=CC(C)(C)O3)cc(OC)c1O | 25.6 µM
> 200 µM | CCN(CC)c1ccc(/C=C/C(=O)c2c(OC)cc3c(c2O)C=CC(C)(C)O3)cc1 | > 200 µM
117 µM | CCOc1ccc(Br)cc1/C=C/C(=O)c1c(OC)cc2c(c1O)C=CC(C)(C)O2 | 165 µM
163 µM | COc1cc2c(c(O)c1C(=O)/C=C/c1ccc([N+](=O)[O-])cc1)C=CC(C)(C)O2 | 133 µM
154 µM | COc1cc2c(c(O)c1C(=O)/C=C/c1ccc(Br)cc1)C=CC(C)(C)O2 | 157 µM
26.2 µM | COc1cc2c(c(O)c1C(=O)/C=C/c1ccc(C(F)(F)F)cc1)C=CC(C)(C)O2 | 25.4 µM
24.8 µM | COc1cc(/C=C/C(=O)c2c(OC)cc3c(c2O)C=CC(C)(C)O3)ccc1O | 17.6 µM
> 200 µM | COc1cc2c(c(O)c1C(=O)/C=C/c1ccc(N3CCCC3)cc1)C=CC(C)(C)O2 | > 200 µM
20.5 µM | COc1cc2c(c(O)c1C(=O)/C=C/c1ccccc1Br)C=CC(C)(C)O2 | 23.1 µM
